Data published in ChEMBL document CHEMBL1201862, “PubChem BioAssay data set” (2004).
Active and inactive are the calls of the source.

Legend:
[1] = biological target: T1, Sentrin-specific protease 8 (Homo sapiens, UniProt Q96LD8); test: SENP8 protease inhibitors, SAR follow-up, biochemical, luminescence (AID 504501); format: functional
T1 sequence (Q96LD8 whole entry): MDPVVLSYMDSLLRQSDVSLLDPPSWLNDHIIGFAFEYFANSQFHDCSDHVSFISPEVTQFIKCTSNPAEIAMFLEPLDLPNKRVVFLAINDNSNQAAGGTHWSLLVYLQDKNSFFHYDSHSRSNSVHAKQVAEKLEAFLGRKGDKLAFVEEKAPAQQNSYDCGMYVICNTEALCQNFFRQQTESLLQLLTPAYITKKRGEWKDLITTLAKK

Caspase-3 [2] = biological target: T2, Caspase-3 (Homo sapiens, UniProt P42574); test: SAR Analysis of small molecule inhibitors of Sentrin-specific proteases (SENPs) using a Caspase-3 Selectivity assay. [Related pubchem assays (depositor defined):AID2540, AID2599, AID434973, AID489001]; format: functional
T2 sequence (P42574 whole entry): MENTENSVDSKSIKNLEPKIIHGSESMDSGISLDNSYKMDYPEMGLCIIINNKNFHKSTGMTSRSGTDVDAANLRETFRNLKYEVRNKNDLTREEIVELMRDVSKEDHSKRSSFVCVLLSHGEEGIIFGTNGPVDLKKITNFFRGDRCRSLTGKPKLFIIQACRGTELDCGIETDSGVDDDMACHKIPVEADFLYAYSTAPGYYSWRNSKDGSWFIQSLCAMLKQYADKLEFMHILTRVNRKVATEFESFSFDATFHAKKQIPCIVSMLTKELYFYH

[3] = biological target: T3, Sentrin-specific protease 6 (Homo sapiens, UniProt Q9GZR1); test: SAR Analysis of small molecule inhibitors of Sentrin-specific protease 6 (SENP6) using a Luminescent assay. [Related pubchem assays (depositor defined):AID2582, AID2599]; format: functional
T3 sequence (Q9GZR1 whole entry): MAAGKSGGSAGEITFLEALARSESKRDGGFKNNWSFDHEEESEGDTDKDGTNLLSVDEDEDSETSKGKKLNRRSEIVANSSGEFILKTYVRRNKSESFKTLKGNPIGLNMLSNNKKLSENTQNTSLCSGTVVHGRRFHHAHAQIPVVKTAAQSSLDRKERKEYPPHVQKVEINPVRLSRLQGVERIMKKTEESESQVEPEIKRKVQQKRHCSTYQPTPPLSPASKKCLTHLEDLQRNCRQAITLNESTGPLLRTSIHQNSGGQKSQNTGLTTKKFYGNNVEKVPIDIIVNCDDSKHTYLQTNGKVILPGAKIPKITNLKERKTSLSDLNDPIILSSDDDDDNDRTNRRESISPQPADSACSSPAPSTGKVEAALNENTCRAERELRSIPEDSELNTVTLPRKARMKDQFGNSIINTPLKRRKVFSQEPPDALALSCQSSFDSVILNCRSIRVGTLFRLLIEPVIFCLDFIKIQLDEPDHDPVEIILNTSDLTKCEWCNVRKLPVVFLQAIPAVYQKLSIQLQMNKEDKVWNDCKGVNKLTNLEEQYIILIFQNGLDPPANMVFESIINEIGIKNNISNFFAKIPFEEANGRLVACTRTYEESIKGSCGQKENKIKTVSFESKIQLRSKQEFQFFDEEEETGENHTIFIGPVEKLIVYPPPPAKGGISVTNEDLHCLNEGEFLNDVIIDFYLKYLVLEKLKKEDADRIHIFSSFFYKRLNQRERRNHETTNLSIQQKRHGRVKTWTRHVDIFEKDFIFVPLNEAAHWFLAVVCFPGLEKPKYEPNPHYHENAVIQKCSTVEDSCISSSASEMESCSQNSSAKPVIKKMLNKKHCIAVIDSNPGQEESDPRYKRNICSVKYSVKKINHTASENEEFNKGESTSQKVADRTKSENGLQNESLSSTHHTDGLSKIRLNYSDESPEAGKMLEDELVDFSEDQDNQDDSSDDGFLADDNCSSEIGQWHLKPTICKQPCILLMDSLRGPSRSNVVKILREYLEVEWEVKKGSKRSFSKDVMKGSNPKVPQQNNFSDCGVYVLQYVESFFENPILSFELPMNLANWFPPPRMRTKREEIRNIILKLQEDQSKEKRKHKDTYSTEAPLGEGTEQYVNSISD

[4] = biological target: T4, Sentrin-specific protease 7 (Homo sapiens, UniProt Q9BQF6); test: SENP7 protease inhibitors, SAR follow-up, biochemical, luminescence (AID 504497); format: functional
T4 sequence (Q9BQF6 whole entry): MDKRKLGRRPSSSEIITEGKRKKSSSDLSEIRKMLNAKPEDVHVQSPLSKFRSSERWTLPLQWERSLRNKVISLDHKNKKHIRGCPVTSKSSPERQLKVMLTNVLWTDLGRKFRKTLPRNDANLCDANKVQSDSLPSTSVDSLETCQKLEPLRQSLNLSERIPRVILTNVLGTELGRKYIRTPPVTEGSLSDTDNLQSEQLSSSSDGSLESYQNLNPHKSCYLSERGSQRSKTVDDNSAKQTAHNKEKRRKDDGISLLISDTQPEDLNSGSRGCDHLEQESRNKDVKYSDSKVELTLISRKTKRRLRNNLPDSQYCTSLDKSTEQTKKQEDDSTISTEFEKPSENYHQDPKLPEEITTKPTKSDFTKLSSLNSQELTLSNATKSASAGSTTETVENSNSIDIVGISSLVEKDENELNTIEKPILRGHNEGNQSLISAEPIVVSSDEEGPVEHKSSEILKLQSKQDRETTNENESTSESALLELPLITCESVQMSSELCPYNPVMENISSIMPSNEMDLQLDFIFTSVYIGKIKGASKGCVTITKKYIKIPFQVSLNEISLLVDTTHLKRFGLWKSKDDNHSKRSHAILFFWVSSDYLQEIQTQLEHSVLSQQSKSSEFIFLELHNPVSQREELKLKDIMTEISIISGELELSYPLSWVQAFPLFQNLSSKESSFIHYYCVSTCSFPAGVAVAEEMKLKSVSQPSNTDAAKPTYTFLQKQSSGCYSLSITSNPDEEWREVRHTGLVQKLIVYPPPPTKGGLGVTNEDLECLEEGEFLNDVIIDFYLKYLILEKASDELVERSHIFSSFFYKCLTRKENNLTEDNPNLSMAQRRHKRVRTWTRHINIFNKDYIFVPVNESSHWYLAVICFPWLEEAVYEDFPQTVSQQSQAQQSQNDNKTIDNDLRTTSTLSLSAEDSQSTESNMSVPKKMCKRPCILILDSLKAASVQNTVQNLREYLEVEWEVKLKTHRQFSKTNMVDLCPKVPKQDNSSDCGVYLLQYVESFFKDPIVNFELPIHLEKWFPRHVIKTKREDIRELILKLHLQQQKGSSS

Caspase-3 [5] = biological target: T2, Caspase-3; format: functional
[6] = biological target: T4, Sentrin-specific protease 7; format: functional
[7] = biological target: T3, Sentrin-specific protease 6; format: functional
[8] = biological target: FAD-linked sulfhydryl oxidase ALR (Homo sapiens, UniProt P55789); test: inhibitors of human ALR sulfhydryl oxidase, dose response, biochemical, H2O2 detection, luminescence, cherry-pick (AID 493248)
[9] = biological target: T1, Sentrin-specific protease 8; format: functional
[10] = biological target: T5, RNA-binding protein pos-1 (Caenorhabditis elegans, UniProt G5EF15); test: inhibitors of POS-1/mex-3 RNA binding, dose response, biochemical, fluorescence polarization (AID 1964);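 also: purified POS-1 fused to maltose binding protein made in E. coli; potency of compounds blocking POS-1 binding to fluorescent RNA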
T5 sequence (G5EF15 whole entry): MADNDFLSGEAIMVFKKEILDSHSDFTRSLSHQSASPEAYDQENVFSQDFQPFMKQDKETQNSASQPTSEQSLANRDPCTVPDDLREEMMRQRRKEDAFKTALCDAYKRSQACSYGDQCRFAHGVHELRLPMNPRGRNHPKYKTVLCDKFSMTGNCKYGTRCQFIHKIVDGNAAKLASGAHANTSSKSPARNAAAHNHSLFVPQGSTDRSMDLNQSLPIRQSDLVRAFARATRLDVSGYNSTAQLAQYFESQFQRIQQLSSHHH

[11] = biological target: T6, Zinc finger protein mex-5 (Caenorhabditis elegans, UniProt Q9XUB2); test: MEX-5/TCR-2 RNA interaction inhibitors, dose response, biochemical, C. elegans, fluorescence polarization (AID 1960)
T6 sequence (Q9XUB2 whole entry): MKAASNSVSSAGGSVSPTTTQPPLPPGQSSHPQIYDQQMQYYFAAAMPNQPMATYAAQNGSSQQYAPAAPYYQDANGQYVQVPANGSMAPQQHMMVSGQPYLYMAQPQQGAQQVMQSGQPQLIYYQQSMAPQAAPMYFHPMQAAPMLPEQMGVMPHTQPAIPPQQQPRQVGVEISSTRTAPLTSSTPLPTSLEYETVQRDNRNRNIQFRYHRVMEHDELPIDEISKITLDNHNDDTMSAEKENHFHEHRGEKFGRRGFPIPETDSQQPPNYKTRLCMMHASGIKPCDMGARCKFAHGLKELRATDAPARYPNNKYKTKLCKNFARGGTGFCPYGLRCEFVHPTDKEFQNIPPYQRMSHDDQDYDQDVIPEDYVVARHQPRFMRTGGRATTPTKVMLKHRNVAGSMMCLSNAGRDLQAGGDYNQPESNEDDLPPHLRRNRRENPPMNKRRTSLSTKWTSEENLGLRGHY

[12] = cytotoxicity in HEK-293T cells, dose response, cytotoxicity control for BCR NF-kB inhibitor project, luminescence, B-cell screen hits (AID 489021); format: functional, cell-based;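 also: HEK-293T cells carrying an NF-kB luciferase reporter; cells exposed to compound for about 14 hours before viability readout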
[13] = biological target: T7, Endoribonuclease toxin MazF (Escherichia coli K-12, UniProt P0AE70); test: MazF toxin RNase activators, dose response, biochemical, fluorescence, single-stranded RNA substrate, uHTS hits (AID 588481); format: functional
T7 sequence (P0AE70 whole entry): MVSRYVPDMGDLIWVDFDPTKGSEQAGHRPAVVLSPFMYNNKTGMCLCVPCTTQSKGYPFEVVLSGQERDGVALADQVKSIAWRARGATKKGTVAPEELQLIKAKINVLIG

[14] = biological target: T7, Endoribonuclease toxin MazF; test: fluorescent RNA oligo signal without MazF, dose response, counter-screen for MazEF activator project, biochemical, fluorescence, single-stranded RNase substrate (AID 588502); format: functional
Aminopeptidase N = biological target: T8, Aminopeptidase N (Plasmodium falciparum FcB1/Columbia, UniProt O96935); test: P. falciparum M1AAP inhibitors, biochemical, fluorogenic H-Leu-NHMec substrate, 1536-well (AID 1445); parameters: species or system Plasmodium falciparum 3D7, 3D7
T8 sequence (O96935 whole entry): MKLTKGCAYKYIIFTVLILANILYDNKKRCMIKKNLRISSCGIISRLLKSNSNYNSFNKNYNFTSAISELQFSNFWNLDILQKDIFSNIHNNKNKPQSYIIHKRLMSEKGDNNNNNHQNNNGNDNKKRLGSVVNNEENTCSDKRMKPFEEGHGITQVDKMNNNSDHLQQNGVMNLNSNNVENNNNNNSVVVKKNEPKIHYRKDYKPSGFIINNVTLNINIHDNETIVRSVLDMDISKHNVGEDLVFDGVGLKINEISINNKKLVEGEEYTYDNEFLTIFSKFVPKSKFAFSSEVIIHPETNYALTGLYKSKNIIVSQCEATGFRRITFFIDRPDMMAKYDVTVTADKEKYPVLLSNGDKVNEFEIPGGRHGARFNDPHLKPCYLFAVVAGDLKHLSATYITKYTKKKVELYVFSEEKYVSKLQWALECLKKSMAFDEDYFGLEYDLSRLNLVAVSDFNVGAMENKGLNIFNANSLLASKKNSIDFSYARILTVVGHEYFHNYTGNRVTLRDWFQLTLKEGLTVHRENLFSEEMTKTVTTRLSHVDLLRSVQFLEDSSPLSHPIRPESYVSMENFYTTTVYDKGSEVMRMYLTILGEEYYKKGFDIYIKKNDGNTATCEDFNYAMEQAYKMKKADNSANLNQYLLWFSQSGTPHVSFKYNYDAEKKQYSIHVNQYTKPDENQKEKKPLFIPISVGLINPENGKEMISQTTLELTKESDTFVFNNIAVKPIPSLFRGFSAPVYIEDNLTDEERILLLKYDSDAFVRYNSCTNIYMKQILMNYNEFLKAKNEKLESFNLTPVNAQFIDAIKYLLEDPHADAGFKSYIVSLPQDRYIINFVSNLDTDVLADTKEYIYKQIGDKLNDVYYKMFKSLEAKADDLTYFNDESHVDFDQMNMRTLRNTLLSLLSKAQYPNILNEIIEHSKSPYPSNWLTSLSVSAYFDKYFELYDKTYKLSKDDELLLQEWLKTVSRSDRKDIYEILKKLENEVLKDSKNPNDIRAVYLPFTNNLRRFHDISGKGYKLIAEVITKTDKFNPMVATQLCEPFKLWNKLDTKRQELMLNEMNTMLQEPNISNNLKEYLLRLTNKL

Cysteine protease ATG4B = Cysteine protease ATG4B (Homo sapiens, UniProt Q9Y4P1); format: functional;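 also: Fluorescence-based dose-response confirmation assay measuring inhibition of ATG4B activity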
Phospholipase A2 = Phospholipase A2 (Homo sapiens, UniProt P04054); format: functional;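 also: confirmatory dose-response counterscreen on phospholipase A2, testing hits that came from an ultra-high-throughput screen for ATG4B inhibitors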
Phospholipase A2, sequence (P04054 whole entry): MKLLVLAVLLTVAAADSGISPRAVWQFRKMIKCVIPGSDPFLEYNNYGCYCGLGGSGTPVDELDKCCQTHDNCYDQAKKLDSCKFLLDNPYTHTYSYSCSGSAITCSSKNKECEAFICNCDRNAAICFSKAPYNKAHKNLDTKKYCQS

FAD-linked sulfhydryl oxidase ALR, sequence (P55789 whole entry): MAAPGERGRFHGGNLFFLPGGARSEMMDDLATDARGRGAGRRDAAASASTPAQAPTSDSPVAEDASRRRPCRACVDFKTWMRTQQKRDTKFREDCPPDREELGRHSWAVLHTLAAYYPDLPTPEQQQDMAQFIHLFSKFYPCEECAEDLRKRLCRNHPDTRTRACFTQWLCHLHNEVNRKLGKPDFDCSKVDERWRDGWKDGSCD
Cysteine protease ATG4B, sequence (Q9Y4P1 whole entry): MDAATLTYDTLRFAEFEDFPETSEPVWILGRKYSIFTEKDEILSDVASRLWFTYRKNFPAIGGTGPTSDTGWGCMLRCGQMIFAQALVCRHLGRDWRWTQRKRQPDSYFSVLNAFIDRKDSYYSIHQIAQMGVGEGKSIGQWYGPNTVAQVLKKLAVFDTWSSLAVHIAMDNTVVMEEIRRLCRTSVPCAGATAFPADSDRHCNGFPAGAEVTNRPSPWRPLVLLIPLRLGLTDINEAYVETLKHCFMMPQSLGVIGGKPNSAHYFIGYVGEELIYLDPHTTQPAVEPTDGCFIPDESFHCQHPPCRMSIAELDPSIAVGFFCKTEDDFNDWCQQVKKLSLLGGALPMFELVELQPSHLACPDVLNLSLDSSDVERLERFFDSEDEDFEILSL

With `O=[N+]([O-])c1ccc(/N=C/c2c[nH]c3ccccc23)cc1` the IC50 [1] was > 99 µM (inactive), the IC50 (Caspase-3 [2]) was > 99 µM (inactive) and the IC50 [3] was > 99 µM (inactive). For the same compound, the IC50 [4] was > 99 µM (inactive).

In the case of `C/C(=N/O)c1ccc2ccc3ccccc3c2c1`, the IC50 (Caspase-3 [5]) is reported as 38 µM (active), the IC50 [6] is reported as 9.17 µM (active) and the IC50 [7] is reported as 16.7 µM (active). For the same compound, the AC50 [8] was 5.54 µM (active) and the IC50 [9] was 21.6 µM (active).

In the case of `COc1ccccc1/C=C1/SC(=S)N(CCC(=O)Nc2cccnc2)C1=O`, the EC50 [10] is reported as 69.2 µM (active), the EC50 [11] is reported as 37.6 µM (inconclusive) and the IC50 [12] is reported as > 80 µM (inactive). For the same compound, the EC50 [13] was 52 µM (inactive) and the EC50 [14] was > 99 µM (inactive).

In the case of `COc1cc(/C=C/C(=O)O)cc(S(=O)(=O)Nc2cc(Cl)c(Cl)cc2Cl)c1OC`, the IC50 (Aminopeptidase N) is reported as 94.2 µM (active), the IC50 (Cysteine protease ATG4B) is reported as 6.7 µM (active) and the IC50 (Phospholipase A2) is reported as 34.1 µM (inactive).

In the case of `Cc1cccc(CN2C(=O)N/C(=C/c3ccc(C)s3)C2=O)c1`, the EC50 [10] is reported as 27.5 µM (active), the EC50 [11] is reported as > 300 µM (inconclusive) and the EC50 [13] is reported as > 99 µM (inactive). The EC50 [14] was 87.8 µM (inactive).
